Measurements published in patent US11110186B2, “Anionic chelate compounds” (GENERAL ELECTRIC COMPANY, priority 2017, dated 2021).

Assay: not given
Conditions: estimated in DMSO; arm —C(═O)—N—R2R3 of Formula I; cited from earlier work

SMILES | pKa (approx.)
CC(=O)NC/C=C1\SC(=O)NC1=O | ~6.8
CC(=O)NCCc1ccc(S(=O)(=O)C[N+](=O)[O-])cc1 | ~7.1
CC(=O)NCCc1cc([N+](=O)[O-])ccc1S | ~5.5
CC(=O)NCCc1ccc(C(=O)C[N+](=O)[O-])cc1 | ~7.7
CC(=O)NCCc1cc([N+](=O)[O-])cc([N+](=O)[O-])c1O | ~5.1
CC(=O)NCCc1ccc(C(C#N)C#N)cc1 | ~4.2
CC(=O)NCCS(=O)(=O)O | ~1.6

Assay: Measurement of r1 and r2 relaxivities (Bruker mq60 relaxometer)
Type: physicochemical
Conditions: in water at 60 MHz and 40° C.
Protocol: Manganese containing chelates were dissolved in water at concentrations ranging from […] Mn. T1 and T2 relaxation times were then measured at 60 MHz and 40° C. using a Bruker mq60 relaxometer. Linear fits (R^2>0.99 in all cases) of 1/T1 or 1/T2 as a function of Mn concentration gave r1 or r2 values respectively.
The values in Table 1 are relaxivities in water. The r1 value represents the ability of the chelate to generate T1 (or positive) contrast in a MR scanner while the r2 value represents the ability of the chelate to generate T2 (or negative) contrast in a MR scanner.

SMILES | r1 relaxivity
CN1CCN2Cc3cccc(n3)CN(CC1)C(CCC(=O)NCCS(=O)(=O)O)C(=O)[O][Mn][O]C(=O)C2CCC(=O)NCCS(=O)(=O)O (stereo not shown) [Mn Chelate 1] | 3.4 mM⁻¹ s⁻¹
CN1CCN2Cc3cccc(n3)CN(CC1)C(CCCCNC(=O)[C@H](O)[C@@H](O)C(=O)O)C(=O)[O][Mn][O]C(=O)C2CCCCNC(=O)[C@H](O)[C@@H](O)C(=O)O (stereo partly shown) [Mn Chelate 2] | 4.6 mM⁻¹ s⁻¹
CN1CCN2CC(=O)[O][Mn][O]C(=O)CN(CC1)Cc1cccc(n1)C2 [Mn Platform, reference compound] | 1.7 mM⁻¹ s⁻¹
